In brackets after ≈: the same amount, converted by molar mass. Read-outs that look alike come from different tables or passages of the source.
Columns and labels:
[1] = biological target: T1, human GLP-1 receptor (Homo sapiens, UniProt P43220); test: cAMP response of HEK-293 cells stably expressing human GLP-1 receptor (HTRF); type: cell-based; settings: Table 6; read-out: EC50 hGLP-1R
T1 construct: expressed in transfected cells; host or cells: HEK-293
Outline: (§1)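 HEK-293 cells stably expressing the receptor were taken up in HBSS/20 mM HEPES/0.1% BSA with 2 mM IBMX at 400000 cells/ml. They were exposed to increasing concentrations of peptide for 30 minutes at room temperature, and formed cAMP was measured by HTRF.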

[2] = biological target: T2, human glucagon receptor (Homo sapiens, UniProt P47871); test: cAMP response of HEK-293 cells stably expressing human glucagon receptor (HTRF); type: cell-based; settings: Table 6; read-out: EC50 hGlucagon-R
T2 construct: expressed in transfected cells; host or cells: HEK-293
T2 sequence (P47871 26-477): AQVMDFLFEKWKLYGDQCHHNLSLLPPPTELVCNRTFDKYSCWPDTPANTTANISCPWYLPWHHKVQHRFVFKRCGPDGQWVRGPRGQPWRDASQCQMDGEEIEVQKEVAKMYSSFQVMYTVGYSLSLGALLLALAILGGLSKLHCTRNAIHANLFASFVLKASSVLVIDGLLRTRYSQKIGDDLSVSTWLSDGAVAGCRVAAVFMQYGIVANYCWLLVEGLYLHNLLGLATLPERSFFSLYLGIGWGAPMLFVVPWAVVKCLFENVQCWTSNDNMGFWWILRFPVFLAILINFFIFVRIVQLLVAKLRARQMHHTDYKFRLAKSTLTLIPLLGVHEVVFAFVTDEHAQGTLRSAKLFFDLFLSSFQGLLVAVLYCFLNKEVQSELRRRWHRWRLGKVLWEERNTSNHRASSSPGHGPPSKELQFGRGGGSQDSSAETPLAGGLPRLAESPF
Outline: as §1

[3] = biological target: T3, human GIP receptor (Homo sapiens, UniProt P48546); test: cAMP response of HEK-293 cells stably expressing human GIP receptor (HTRF); type: cell-based; settings: Table 6; read-out: EC50 hGIP-R
T3 construct: expressed in transfected cells; host or cells: HEK-293
T3 sequence (P48546 22-466): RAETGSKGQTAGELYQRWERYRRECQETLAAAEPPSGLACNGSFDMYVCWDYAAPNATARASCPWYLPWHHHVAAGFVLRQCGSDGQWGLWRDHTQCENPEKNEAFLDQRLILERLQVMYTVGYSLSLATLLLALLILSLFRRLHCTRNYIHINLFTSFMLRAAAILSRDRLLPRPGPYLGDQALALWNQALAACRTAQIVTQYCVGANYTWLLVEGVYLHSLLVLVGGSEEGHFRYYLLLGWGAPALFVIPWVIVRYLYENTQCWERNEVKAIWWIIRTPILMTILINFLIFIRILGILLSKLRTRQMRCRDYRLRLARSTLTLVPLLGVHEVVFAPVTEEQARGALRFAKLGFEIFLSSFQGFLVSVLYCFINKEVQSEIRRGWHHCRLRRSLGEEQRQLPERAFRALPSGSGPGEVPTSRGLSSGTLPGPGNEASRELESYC
Experimental: For preparation, cells were split into T175 culture flasks and grown overnight to near confluency in medium (DMEM/10% FBS). Medium was then removed and cells washed with PBS lacking calcium and magnesium, followed by proteinase treatment with accutase (Sigma-Aldrich cat. no. A6964). Detached cells were washed and resuspended in assay buffer (1×HBSS; 20 mM HEPES, 0.1% BSA, 2 mM IBMX) and cellular density determined. They were then diluted to 400000 cells/ml and 25 μl-aliquots dispensed into the wells of 96-well plates. For measurement, 25 μl of test compound in assay buffer was added to the wells, followed by incubation for 30 minutes at room temperature. […] Potencies of peptidic compounds at the GLP-1, glucagon and GIP receptors were determined by exposing cells expressing human glucagon receptor (hGlucagon R), human GIP receptor (hGIP-R) or human GLP-1 receptor (hGLP-1R) to the listed compounds at increasing concentrations and measuring the formed cAMP as described in Methods.

[4] = Solubility testing in buffer (HPLC-UV); type: physicochemical
Experimental: Prior to the testing of solubility and stability of a peptide batch, its purity (HPLC-UV) was determined. […] Therefore, solutions from solid samples were prepared in different buffer systems with a concentration of 10 mg/mL compound based on the previously determined % purity. HPLC-UV was performed after 2 h of gentle agitation from the supernatant, which was obtained by 20 min of centrifugation at 4500 rpm. […] This analysis also served as starting point (t0) for the stability testing.

[5] = Stability testing in solution, 7 days at 40° C. (HPLC-UV); type: physicochemical; settings: for Stability pH 4.5: pH 4.5, 7 days at 40° C. in solution; for Stability pH 7.4: pH 7.4, 7 days at 40° C. in solution
Experimental: After that time course, the sample was centrifuged for 20 min at 4500 rpm and 0.2 μL of the supernatant were analysed with HPLC-UV.
For determination of the amount of the remaining peptide, the peak areas of the target compound at t0 and t7 were compared, resulting in “% remaining peptide”, following the equation % remaining peptide=[(peak area peptide t7)×100]/peak area peptide t0.
The stability is expressed as “% remaining peptide”.

[6] = Pharmacokinetic testing in mice, 1 mg/kg s.c. (LC/MS); type: in vivo; settings: mouse, plasma, sc
Experimental: Mice were dosed 1 mg/kg subcutaneously (s.c.). The mice were sacrificed and blood samples were collected after 0.25, 0.5, 1, 2, 4, 8, 16 and 24 hours post application. Plasma samples were analyzed after protein precipitation via liquid chromatography mass spectrometry (LC/MS). PK parameters and half-life were calculated using WinonLin Version 5.2.1 (non-compartment model).

[7] = system: female diet-induced obese (DIO) C57BL/6 mice; test: Chronic effect on body weight and body fat in female DIO C57BL/6 mice; type: in vivo; settings: 50 μg/kg bid s.c., 4 weeks; for Body fat change: NMR; for Body fat change / Overall weight change: mean ± SEM
Experimental: (§2) C57BL/6 Harlan mice are housed in groups in a specific pathogen-free barrier facility on a 12 h light/dark cycle with free access to water and standard or high-fat diet. After prefeeding on high-fat diet, mice are stratified to treatment groups (n=8), so that each group has similar mean body weight. An age-matched group with ad-libitum access to standard chow is included as standard control group. Before the experiment, mice are subcutaneously (s.c.) injected with vehicle solution and weighed for 3 days to acclimate them to the procedures.
Body weight is recorded daily. Two days before start of treatment and on day 26, total fat mass is measured by nuclear magnetic resonance (NMR).
(§3) Statistical analyses are performed with Everstat 6.0 by repeated measures two-way ANOVA and Dunnetts post-hoc analyses (glucose profile) and 1-way-ANOVA, followed by Dunnetts post-hoc test (body weight, body fat). Differences versus vehicle-treated DIO control mice are considered statistically significant at the p<0.05 level.
Female obese C57BL/6 mice were treated for 4 weeks twice daily subcutaneously with 50 μg/kg SEQ ID NO: 6, 50 μg/kg SEQ ID NO: 7 or vehicle. Body weight was recorded daily, and body fat content was determined before the start and after 4 weeks of treatment. […] These changes resulted from a decrease in body fat, as shown by the absolute changes in body fat content (Table 10, FIG. 3).
Female obese C57BL/6 mice were treated for 4 weeks twice daily subcutaneously with 50 μg/kg SEQ ID NO: 9 or vehicle. Body weight was recorded daily, and body fat content was determined before the start and after 4 weeks of treatment.

[8] = system: female diet-induced obese (DIO) C57BL/6 mice; test: Acute effect on blood glucose in fed female DIO C57BL/6 mice; type: in vivo; settings: 50 μg/kg s.c., profile over 24 h
Experimental: as §2
The volume of administration is 5 mL/kg. The animals have access to water and their corresponding diet during the experiment. Blood glucose levels are measured at t=0 h, t=1 h, t=2 h, t=3 h, t=4 h, t=6 h and t=24 h (method: Accu-Check glucometer). Blood sampling is performed by tail incision without anaesthesia.
as §3, with “level. […]” for “level.”

[9] = pH 4.5, target concentration 10 mg/ml, read-out: solubility pH 4.5
[10] = pH 7.4, target concentration 10 mg/ml, read-out: solubility pH 7.4

T1 sequence (P43220 24-463): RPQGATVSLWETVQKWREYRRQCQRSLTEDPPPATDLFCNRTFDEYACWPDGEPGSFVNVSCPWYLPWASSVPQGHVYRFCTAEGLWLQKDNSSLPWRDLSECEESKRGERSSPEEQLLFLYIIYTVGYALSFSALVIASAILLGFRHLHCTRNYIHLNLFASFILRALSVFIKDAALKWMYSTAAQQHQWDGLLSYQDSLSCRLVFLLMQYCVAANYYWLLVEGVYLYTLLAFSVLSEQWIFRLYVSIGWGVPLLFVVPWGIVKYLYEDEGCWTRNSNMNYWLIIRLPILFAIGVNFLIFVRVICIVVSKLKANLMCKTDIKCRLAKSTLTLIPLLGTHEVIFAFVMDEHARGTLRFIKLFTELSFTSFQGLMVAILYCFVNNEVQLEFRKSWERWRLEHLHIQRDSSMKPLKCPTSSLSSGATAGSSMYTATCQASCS

Structure (SMILES)	EC50 [1] [nM]	EC50 [2] [nM]	EC50 [3] [nM]	solubility at 2 h [4, 9] [µg/mL]	solubility at 2 h [4, 10] [µg/mL]	Stability pH 4.5 [5] [% remaining peptide]	Stability pH 7.4 [5] [% remaining peptide]	Cmax [6] [ng/mL]	half-life [6] [h]	daily body weight compared to vehicle DIO control mice [7]	Body fat change ([7]; Table 11 (Example 8)) [g]	Overall weight change ([7]; Table 11 (Example 8)) [g]	blood glucose compared to DIO control [8]	Body fat change ([7]; Table 10 (Example 7)) [g]	Overall weight change ([7]; Table 10 (Example 7)) [g]
CCCCCCCCCCCCCCCC(=O)N[C@@H](CCC(=O)N[C@@H](CCC(=O)NCCCC[C@H](NC(=O)[C@H](CCC(N)=O)NC(=O)[C@H](CCCCN)NC(=O)[C@H](CO)NC(=O)[C@H](CC(C)C)NC(=O)[C@H](CC(=O)O)NC(=O)[C@H](CO)NC(=O)[C@@H](NC(=O)[C@H](Cc1ccccc1)NC(=O)[C@@H](NC(=O)CNC(=O)[C@H](CCC(N)=O)NC(=O)[C@@H](CO)NC(=O)[C@@H](N)Cc1c[nH]cn1)[C@@H](C)O)[C@@H](C)O)C(=O)N[C@@H](CC(=O)O)C(=O)N[C@@H](CCC(=O)O)C(=O)N[C@@H](CCC(=O)O)C(=O)N[C@@H](C)C(=O)N[C@@H](C)C(=O)N[C@@H](CCCNC(=N)N)C(=O)N[C@@H](CC(C)C)C(=O)N[C@@H](Cc1ccccc1)C(=O)N[C@H](C(=O)N[C@@H](CCC(=O)O)C(=O)N[C@@H](Cc1c[nH]c2ccccc12)C(=O)N[C@@H](CC(C)C)C(=O)NC(C)(C)C(=O)N[C@@H](C)C(=O)NCC(=O)NCC(=O)N1CCC[C@H]1C(=O)N[C@@H](CO)C(=O)N[C@@H](CO)C(=O)NCC(=O)N[C@@H](C)C(=O)N1CCC[C@H]1C(=O)N1CCC[C@H]1C(=O)N1CCC[C@H]1C(=O)N[C@@H](CO)C(N)=O)[C@@H](C)CC)C(=O)O)C(=O)O [SEQ ID NO: 9, H-dSer-Q-G-T-F-T-S-D-L-S-K-Q-K(γE-γE-x53)-D-E-E-A-A-R-L-F-I-E-W-L-Aib-A-G-G-P-S-S-G-A-P-P-P-S-NH2]	0.0018	0.0118	3.6	2200 (≈ 480 µM)	> 8000	77.0	93.0	6560	3.8	decrease in daily body weight	-5.65 ± 0.9	-6.56 ± 1.0	decrease in blood glucose		
CCCCCCCCCCCCCCCC(=O)N[C@@H](CCC(=O)N[C@@H](CCC(=O)NCCCC[C@H](NC(=O)[C@H](CCC(N)=O)NC(=O)[C@H](CCCCN)NC(=O)[C@H](CO)NC(=O)[C@H](CC(C)C)NC(=O)[C@H](CC(=O)O)NC(=O)[C@H](CO)NC(=O)[C@@H](NC(=O)[C@H](Cc1ccccc1)NC(=O)[C@@H](NC(=O)CNC(=O)[C@H](Cc1c[nH]cn1)NC(=O)[C@@H](CO)NC(=O)[C@@H](N)Cc1c[nH]cn1)[C@@H](C)O)[C@@H](C)O)C(=O)N[C@@H](CCC(=O)O)C(=O)N[C@@H](CCC(=O)O)C(=O)N[C@@H](CCC(=O)O)C(=O)N[C@@H](C)C(=O)N[C@@H](C)C(=O)N[C@@H](CCCNC(=N)N)C(=O)N[C@@H](CC(C)C)C(=O)N[C@@H](Cc1ccccc1)C(=O)N[C@H](C(=O)N[C@@H](CCC(=O)O)C(=O)N[C@@H](Cc1c[nH]c2ccccc12)C(=O)N[C@@H](CC(C)C)C(=O)NC(C)(C)C(=O)N[C@@H](C)C(=O)NCC(=O)NCC(=O)N1CCC[C@H]1C(=O)N[C@@H](CO)C(=O)N[C@@H](CO)C(=O)NCC(=O)N[C@@H](C)C(=O)N1CCC[C@H]1C(=O)N1CCC[C@H]1C(=O)N1CCC[C@H]1C(=O)N[C@@H](CO)C(N)=O)[C@@H](C)CC)C(=O)O)C(=O)O [SEQ ID NO: 6, H-dSer-H-G-T-F-T-S-D-L-S-K-Q-K(γE-γE-x53)-E-E-E-A-A-R-L-F-I-E-W-L-Aib-A-G-G-P-S-S-G-A-P-P-P-S-NH2]	0.0026	0.0177	1.54	> 8000	> 8000	100.0	92.0			decrease in daily body weight				-4.64 ± 0.4	-6.08 ± 0.6
